{"source": "patent US6432948B1", "about": "“USE OF 7-(2-OXA-5,8-DIAZABICYLCO[4.3.0]NON-8-YL)-QUINOLONE CARBOXYLIC ACID AND NAPHTHYRIDON CARBOXYLIC ACID DERIVATIVES FOR THE TREATMENT OF HELIOBACTER PYLORI INFECTIONS AND ASSOCIATED GASTRODUODENAL DISEASES” (Bayer Aktiengesellschaft, priority 1996, dated 2002)", "key": {"H. felis ATCC 49179": {"test_system": "H. felis ATCC 49179", "conditions": "for Eradication of H. felis in the mouse model, monotherapy: therapeutically used doses; for Clearance % / Clearance (animals cleared / animals per group): infected mice, 2 × 10 mg/kg, 70 day treatment as printed in table title (7 days elsewhere in the source), 5 animals per group", "experimental": "The bacteria are administered by stomach tube as a suspension (0.1 ml containing 10^8-10^9 bacteria) 4 times in the course of 7 days. Alternatively to this, stomach homogenates of previously infected mice were used for infection.\n3-5 days after establishment of the infection, the treatment with test preparations was begun. […] In some cases, the bacterial eradication was also determined 2-4 weeks after the end of treatment. Following the “CLO” test used in clinical diagnosis, a urease test on a microtitre basis was employed. Defined stomach biopsy samples were tested for colour change within 24 hours."}, "H. pylori NCTC 1163 7": {"test_system": "H. pylori NCTC 1163 7", "experiment": "MIC, agar dilution test", "format": "cell-based", "conditions": "Helicobacter pylori", "experimental": ". The test substances were tested in replica dishes, which contained falling concentrations of the active compound at in each case doubled dilution. For inoculation, fresh Helicobacter cultures from liquid culture or suspension of the bacteria from agar plates were used. The inoculated agar plates were incubated at 37° C. in an atmosphere containing 5-10% of CO2 for 48-72 hours. The MIC value (mg/l) which was read off indicates the lowest active compound concentration at which no growth was to be detected using the naked eye. The following Helicobacter isolates were used: H. felis ATCC 49179, H. pylori NCTC 1163 7, H. pylori clinical isolate 008."}, "[1]": {"test_system": "H. pylori clinical isolate 008", "experiment": "MIC, agar dilution test", "format": "cell-based", "conditions": "Helicobacter pylori, Columbia agar or Basis 2 agar with 10% lysed horse blood, 37° C., 48-72 hours, read-out: MIC (mg/l) H. pylori 008", "experimental": "For inoculation, fresh Helicobacter cultures from liquid culture or suspension of the bacteria from agar plates were used. The inoculated agar plates were incubated at 37° C. in an atmosphere containing 5-10% of CO2 for 48-72 hours."}, "[2]": {"conditions": "NCTC1163, agar dilution test, Columbia agar or Basis 2 agar with 10% lysed horse blood, 37° C., 48-72 hours, read-out: MIC (mg/l) H. pylori 11637"}}, "note": "Where two headings read alike, the source gives them in different places."}
{"smiles": "CCn1cc(C(=O)O)c(=O)c2cc(F)c(N3CCNC(C)C3)c(F)c21", "note": "(centres unmarked) [lomefloxacin, reference compound]", "values": [{"measurement": "Eradication of H. felis in the mouse model, monotherapy", "setting": "H. felis ATCC 49179; monotherapeutic treatment", "result": "not able to lead to an eradication"}]}
{"smiles": "O=C(O)c1cn([C@@H]2C[C@H]2F)c2nc(N3C[C@@H]4NCCO[C@@H]4C3)c(F)cc2c1=O", "note": "(mixture of isomers) [Example 21, 6-Fluoro-1-(trans-2-fluorocyclopropyl)-1,4-dihydro-7-((1R,6s)-2-oxa-5,8-diazabicyclo[4.3.0]non-8-yl)-4-oxo-1,8-naphthyridine-3-carboxylic acid]", "values": [{"measurement": "melting point", "result": "310 to 314 °C (dec.)"}]}
{"smiles": "Cl.O=C(O)c1cn([C@@H]2C[C@@H]2F)c2c(F)c(N3C[C@@H]4NCCO[C@@H]4C3)c(F)cc2c1=O", "values": [{"measurement": "melting point", "result": "275 to 280 °C (dec.)"}]}
{"smiles": "O=C(O)c1cn([C@@H]2C[C@H]2F)c2cc(N3C[C@@H]4NCCO[C@@H]4C3)c(F)cc2c1=O", "note": "(mixture of isomers) [Example 19, 6-Fluoro-1-(trans-2-fluorocyclopropyl)-1,4-dihydro-7-((1 R,6S)-2-oxa-5,8-diazabicyclo[4.3.0]non-8-yl)-4-oxo-3-quinolinecarboxylic acid]", "values": [{"measurement": "melting point", "result": "270 to 274 °C (dec.)"}]}
{"smiles": "Cl.O=C(O)c1cn([C@@H]2C[C@@H]2F)c2c(Cl)c(N3C[C@@H]4NCCO[C@@H]4C3)c(F)cc2c1=O", "values": [{"measurement": "melting point", "result": "210 to 215 °C (dec.)"}]}
{"smiles": "O=C(O)c1cn([C@@H]2C[C@H]2F)c2c(Cl)c(N3C[C@@H]4NCCO[C@@H]4C3)c(F)cc2c1=O", "note": "(mixture of isomers) [Example 20, 8-Chloro-6-fluoro-1-(trans-2-fluorocyclopropyl)-1,4-dihydro-7-((1R,6S)-2-oxa-5,8-diazabicyclo[4.3.0]non-8-yl)-4-oxo-3-quinolinecarboxylic acid]", "values": [{"measurement": "melting point", "result": "160 to 164 °C (dec.)"}]}
{"smiles": "O=C(O)c1cn(C2CC2)c2cc(N3CCNCC3)c(F)cc2c1=O", "note": "[Ciprofloxacin, ciprofloxacin, reference compound]", "values": [{"measurement": "Eradication of H. felis in the mouse model, monotherapy", "setting": "H. felis ATCC 49179; monotherapeutic treatment", "result": "not able to lead to an eradication"}, {"measurement": "MIC", "setting": "H. pylori NCTC 1163 7; NCTC1163, read-out: MIC (mg/l) H. pylori 11637", "result": 0.125, "unit": "mg/L"}]}
{"smiles": "N#Cc1c(N2CC3NCCOC3C2)c(F)cc2c(=O)c(C(=O)O)cn(C3CC3)c12", "note": "(centres unmarked) [Example 1A]", "values": [{"measurement": "MIC", "setting": "[1]", "result": 0.06, "unit": "mg/L"}, {"measurement": "Eradication of the bacterium", "setting": "H. felis ATCC 49179; 10-day treatment of the mice with 2×10 mg/kg", "result": "eradication of the bacterium"}, {"measurement": "Clearance %", "setting": "H. felis ATCC 49179", "result": 100, "unit": "%"}, {"measurement": "Clearance (animals cleared / animals per group)", "setting": "H. felis ATCC 49179", "result": "5/5"}]}
{"smiles": "CC(CF)(CF)n1cc(C(=O)O)c(=O)c2cc(F)c(N3C[C@@H]4NCCO[C@@H]4C3)cc21", "note": "[Example 4, 1-(1-Fluoromethyl-1-methyl-2-fluoroethyl)-6-fluoro-7-[(1R,6S)-2-oxa-5,8-diazabicyclo[4.3.0]non-8-yl]-1,4-dihydro-4-oxo-3-quinolinecarboxylic acid]", "values": [{"measurement": "MIC", "setting": "[1]", "result": 0.25, "unit": "mg/L"}, {"measurement": "MIC", "setting": "H. pylori NCTC 1163 7; [2]", "result": 0.06, "unit": "mg/L"}]}
{"smiles": "O=C(O)c1cn(C2CC2)c2c(OC(F)F)c(N3CC4NCCOC4C3)c(F)cc2c1=O", "note": "[Example 8, 1-Cyclopropyl-8-difluoromethoxy-6-fluoro-1,4-dihydro-7-((1S,6S)-2-oxa-5 8-diazabicyclo[4.3.0]non-8-yl)-4-oxo-3-quinolinecarboxylic acid]", "values": [{"measurement": "MIC", "setting": "[1]", "result": 0.06, "unit": "mg/L"}, {"measurement": "MIC", "setting": "H. pylori NCTC 1163 7; [2]", "result": 0.06, "unit": "mg/L"}]}
{"smiles": "O=C(O)c1cn([C@@H]2C[C@@H]2F)c2cc(N3C[C@@H]4NCCO[C@@H]4C3)c(F)cc2c1=O", "note": "(mixture of isomers) [Example 15, 6-Fluoro-1-(cis-2-fluorocyclopropyl)-1,4-dihydro-7-((1R,6S)-2-oxa-5,8-diazabicyclo[4.3.0]non-8-yl)-4-oxo-3-quinolinecarboxylic acid]", "values": [{"measurement": "melting point", "result": "236 to 238 °C (dec.)"}]}
{"smiles": "O=C(O)c1cn(C2CC2)c2c(Cl)c(N3C[C@@H]4CCCN[C@@H]4C3)c(F)cc2c1=O", "note": "[BAY Y 3118, 8-chloro-1-cyclopropyl-7-([S,S]-2,8-diazabicyclo[4.3.0]non-8-yl)-6-fluoro-1,4-dihydro-4-oxo-3-quinolinecarboxylic acid, reference compound]", "values": [{"measurement": "Death of animals on account of toxicity at eradicating treatment", "setting": "H. felis ATCC 49179; mouse model, monotherapeutic treatment", "result": "a large part of the animals not dying on account of the toxicity of the compound"}, {"measurement": "Eradication of H. felis in the mouse model, monotherapy", "setting": "H. felis ATCC 49179; monotherapeutic treatment", "result": "no eradication of H. felis can be achieved"}]}
{"smiles": "COc1c(N2C[C@@H]3NCCO[C@H]3C2)c(F)cc2c(=O)c(C(=O)O)cn(C3CC3)c12.Cl", "note": "[Example 13]", "values": [{"measurement": "MIC", "setting": "[1]", "result": 0.125, "unit": "mg/L"}, {"measurement": "MIC", "setting": "H. pylori NCTC 1163 7; [2]", "result": 0.06, "unit": "mg/L"}]}
{"smiles": "COc1c(N2C[C@@H]3NCCO[C@@H]3C2)c(F)cc2c(=O)c(C(=O)O)cn(C3CC3)c12.Cl", "note": "[Example 6, 1-Cyclopropyl-6-fluoro-8-methoxy-7-[(1R,6S)-2-oxa-5,8-diazabicyclo[4.3.0]non-8-yl]-1,4-dihydro-4-oxo-3-quinolinecarboxylic acid hydrochloride]", "values": [{"measurement": "MIC", "setting": "[1]", "result": 0.06, "unit": "mg/L"}, {"measurement": "MIC", "setting": "H. pylori NCTC 1163 7; [2]", "result": 0.06, "unit": "mg/L"}]}
{"smiles": "CN1COc2c(N3CC4NCCOC4C3)c(F)cc3c(=O)c(C(=O)O)cn1c23", "note": "[Example 2, 9-Fluoro-3-methyl-10-((1S,6S)-2-oxa-5,8-diazabicyclo[4.3.0]non-8-yl)-7-oxo-2,3-dihydro-7H-pyrido[1,2,3-d.e][1,3,4]benzoxadiazine-6-carboxylic acid]", "values": [{"measurement": "MIC", "setting": "[1]", "result": 0.06, "unit": "mg/L"}, {"measurement": "Clearance %", "setting": "H. felis ATCC 49179", "result": 100, "unit": "%"}, {"measurement": "Clearance (animals cleared / animals per group)", "setting": "H. felis ATCC 49179", "result": "5/5"}]}
